Source: patent US20260034173A1, “USE OF MANGANESE-CONTAINING COMPOUND IN REDUCING LEVEL OF URIC ACID OF MAMMALIAN SUBJECT” (Shanghai Shiqu Pharmaceutical Technology Co., Ltd., priority 2022, published 2026)

Key:
[1] = tested on: oteracil potassium and adenine induced hyperuricemia model mice; assay: Oteracil potassium and adenine induced hyperuricemia model mice; assay type: in vivo, KM mice; conditions: day 6; allopurinol 50 mg/L drinking water, febuxostat 5 mg/kg/day gavage, manganese oxides 1.16 w/w % in diet
Text: Oteracil potassium and adenine are known to be model drugs capable of inducing hyperuricemia in mice. Specifically, oteracil potassium is a urate oxidase inhibitor that can inhibit further metabolism of uric acid in mice, thereby increasing the concentration of uric acid in the blood of mice; adenine can damage the kidneys, thereby reducing the excretion of uric acid from the kidneys of mice. […] Six days after the beginning of the experiment, 24-hour urine of each group of mice was collected and uric acid content in the urine was detected by the uric acid assay kit to investigate the effects of various experimental substances on the amount of uric acid excreted in the urine of mice.
The control group was fed with basic mouse diet the first day (i.e. the day of the experiment) to the seventh day after the start of the experiment, and the other groups were fed with modeling mouse diet (4.4 w/w % oteracil potassium and 0.44 w/w % adenine were added into the basic mouse diet) for inducing hyperuricemia. […] The uric acid level in urine was measured using a uric acid assay kit (Solarbio, Beijing, China), and the amount of uric acid excreted through urine in 24 hours was calculated based on the urine volume.

[2] = tested on: oteracil potassium and hypoxanthine induced hyperuricemia model mice; assay: Oteracil potassium and hypoxanthine induced hyperuricemia model mice; assay type: in vivo, C57BL/6J mice; conditions: day 8; benzbromarone 10 mg/kg gavage, allopurinol 50 mg/L drinking water, manganese oxides 1.14 w/w % in diet
Procedure: Hypoxanthine can be metabolized into uric acid in the body, so it can also be used in combination with oteracil potassium as a model drug for inducing hyperuricemia in mice. In this example, the healthy mice were randomly divided into 7 groups, the mouse hyperuricemia model was established by administering oteracil potassium and hypoxanthine (they were injected intraperitoneally together) to 6 groups of mice, and 1 group of healthy mice injected intraperitoneally with normal saline was taken as the blank control group. The mice of the experimental groups were given the corresponding experimental substances according to the dosing regimen described in the following experimental method.
From the first day (i.e. the day of the experiment) to the eighth day after the start of the experiment, the blank control group was intraperitoneally injected with normal saline at 9:00 a.m. and 5:00 p.m. every day, and the remaining groups were intraperitoneally injected with modeling solution (100 mg/kg hypoxanthine+100 mg/kg oteracil potassium) at 9:00 am, and 5:00 p.m. every day. The benzbromarone group was administered with benzbromarone solution (10 mg/kg) by gavage at 10 am every day. […]

[3] = tested on: urate oxidase knockout (UOX KO) mice; assay: Experiment on urate oxidase knockout (UOX KO) mice; assay type: in vivo; conditions: gavage daily; blood and 24-hour urine
Text: Urate oxidase knockout (UOX KO) mice aged 6 to 8 weeks were selected, and urine and blood were collected after one week of acclimation to test urine uric acid and blood uric acid levels. […] Mice were gavaged with corresponding drugs daily. After the start of drug administration, the blood of mice was collected every other week to prepare serum, and 24-hour urine was collected to detect the uric acid content in the urine using a uric acid assay kit.

Compound | amount of uric acid excreted in the urine within 24 hours (FIG. 20) [1] | serum uric acid level (FIG. 22) [2] | reduction of uric acid in UOX KO mice [3]
Oc1ncnc2[nH]ncc12 [allopurinol] | at a high level | significantly reduced | effective in reducing uric acid
CCc1oc2ccccc2c1C(=O)c1cc(Br)c(O)c(Br)c1 [benzbromarone] |  | significantly reduced | 
Cc1nc(-c2ccc(OCC(C)C)c(C#N)c2)sc1C(=O)O [febuxostat] | at a high level |  | 
